Assay results taken from patent US9199946B2, “Pyrimidinone carboxamide inhibitors of endothelial lipase” (BRISTOL-MYERS SQUIBB COMPANY, priority 2012, dated 2015).
Where two headings read alike, the source gives them in different places.

Target: T1, Endothelial lipase (EL) (Homo sapiens, UniProt Q9Y5X9)
T1 construct: HT-1080 cells, which were transformed by RAGE technology (Athersys) to overexpress endogenous EL; endogenous in cells; conditioned medium used as the enzyme source
T1 sequence (Q9Y5X9 21-500): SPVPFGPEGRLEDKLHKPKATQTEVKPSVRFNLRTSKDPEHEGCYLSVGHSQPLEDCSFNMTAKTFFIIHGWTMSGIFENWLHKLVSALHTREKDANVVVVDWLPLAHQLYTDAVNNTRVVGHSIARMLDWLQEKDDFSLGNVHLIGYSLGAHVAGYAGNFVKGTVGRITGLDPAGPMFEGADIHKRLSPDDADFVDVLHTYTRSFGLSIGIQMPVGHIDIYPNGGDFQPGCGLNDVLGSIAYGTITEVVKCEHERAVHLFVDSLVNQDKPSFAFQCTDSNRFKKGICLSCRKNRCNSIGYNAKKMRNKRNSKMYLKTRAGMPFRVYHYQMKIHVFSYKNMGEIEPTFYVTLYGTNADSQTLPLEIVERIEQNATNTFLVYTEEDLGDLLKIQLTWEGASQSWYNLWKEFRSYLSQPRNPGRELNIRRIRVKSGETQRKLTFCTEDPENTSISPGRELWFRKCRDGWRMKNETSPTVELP
Experiment: Endothelial lipase (EL) enzymatic assay with fluorescent substrate A10070 in DMPG vesicles
Assay type: biochemical
In short: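 EL activity was followed as a fluorescence rate (488/530 nm, reads every 20 s for 10 min, linear slope) on A10070 doped at 0.05 mole fraction into sonicated DMPG vesicles. Compound was first incubated 20 min at 37 °C, pH 8.0 HEPES/CaCl2 buffer, with conditioned media from EL-overexpressing HT-1080 cells.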

[1] = range observed in the EL assay, read-out: EL IC50 values
[2] = conditioned media from HT-1080 cells overexpressing endogenous EL, 20 min preincubation at 37° C., read-out: EL IC50

Row | IC50 [1] | IC50 [2] | SMILES
1 | ≤ 10 µM | – | COc1ccc2c(c1)CC[C@H]2NC(=O)c1[nH]c(=O)[nH]c(=O)c1N [Example 70, (R)-5-amino-N-(5-methoxy-2,3-dihydro-1H-inden-1-yl)-2,6-dioxo-1,2,3,6-tetrahydropyrimidine-4-carboxamide]
2 | ≤ 10 µM | – | Nc1c(C(=O)N[C@@H]2CCC(c3ccc(Cl)c(Cl)c3)c3ccccc32)[nH]c(=O)[nH]c1=O (single isomer, unassigned) [Example 37]
3 | ≤ 10 µM | – | COC(=O)[C@@H]1C[C@H](NC(=O)c2[nH]c(=O)[nH]c(=O)c2N)c2ccccc21 [Example 12, (1R,3S)-methyl 3-(5-amino-2,6-dioxo-1,2,3,6-tetrahydropyrimidine-4-carboxamido)-2,3-dihydro-1H-indene-1-carboxylate]
4 | ≤ 10 µM | – | O=C(N[C@H]1CC[C@@H](c2ccccc2)CC1)c1[nH]c(=O)[nH]c(=O)c1NCC(F)(F)F [Example 228, 2,6-dioxo-N-(cis-4-phenylcyclohexyl)-5-(2,2,2-trifluoroethylamino)-1,2,3,6-tetrahydropyrimidine-4-carboxamide]
5 | ≤ 10 µM | 0.568 µM | CS(=O)(=O)N1CCC(NC(=O)c2[nH]c(=O)[nH]c(=O)c2N)c2ccccc21 (stereo not shown) [Example 24, 5-amino-N-(1-(methylsulfonyl)-1,2,3,4-tetrahydroquinolin-4-yl)-2,6-dioxo-1,2,3,6-tetrahydropyrimidine-4-carboxamide]
6 | ≤ 10 µM | – | O=C(N[C@@H]1CC[C@@H](C(=O)Nc2cnn(Cc3ccccc3)c2)C1)c1[nH]c(=O)[nH]c(=O)c1O [Example 295, N-((1R,3R)-3-(1-benzyl-1H-pyrazol-4-ylcarbamoyl)cyclopentyl)-5-hydroxy-2,6-dioxo-1,2,3,6-tetrahydropyrimidine-4-carboxamide]
7 | ≤ 10 µM | – | COc1cccc(N2CC(NC(=O)c3[nH]c(=O)[nH]c(=O)c3N)CC2=O)c1 (stereo not shown) [Example 81, 5-amino-N-(1-(3-methoxyphenyl)-5-oxopyrrolidin-3-yl)-2,6-dioxo-1,2,3,6-tetrahydropyrimidine-4-carboxamide]
8 | ≤ 10 µM | – | CC(C)(C)C1CCC(NC(=O)c2[nH]c(=O)[nH]c(=O)c2N)CC1 (stereo not shown) [Example 44, 5-amino-N-(4-tert-butylcyclohexyl)-2,6-dioxo-1,2,3,6-tetrahydropyrimidine-4-carboxamide]
9 | ≤ 10 µM | 0.788 µM | Nc1c(C(=O)N[C@@H]2CC[C@H](c3ccc(-c4cnn(CCN5CCOCC5)c4)cc3)C2)[nH]c(=O)[nH]c1=O [Example 164, 5-amino-N-((1R,3S)-3-(4-(1-(2-morpholinoethyl)-1H-pyrazol-4-yl)phenyl)cyclopentyl)-2,6-dioxo-1,2,3,6-tetrahydropyrimidine-4-carboxamide]
10 | ≤ 10 µM | – | O=C(NC1CCC(c2cnn(Cc3ccccc3)c2)C1)c1[nH]c(=O)[nH]c(=O)c1O (stereo not shown) [Example 283, N-(3-(1-benzyl-1H-pyrazol-4-yl)cyclopentyl)-5-hydroxy-2,6-dioxo-1,2,3,6-tetrahydropyrimidine-4-carboxamide]
11 | ≤ 10 µM | – | Nc1c(C(=O)N[C@@H]2CCc3cc(Oc4ccccc4)ccc32)[nH]c(=O)[nH]c1=O [Example 89, (R)-5-amino-2,6-dioxo-N-(5-phenoxy-2,3-dihydro-1H-inden-1-yl)-1,2,3,6-tetrahydropyrimidine-4-carboxamide]
12 | ≤ 10 µM | 0.641 µM | Nc1c(C(=O)NC2CCN(c3ncnc4[nH]ncc34)C2)[nH]c(=O)[nH]c1=O (stereo not shown) [Example 189, N-(1-(1H-pyrazolo[3,4-d]pyrimidin-4-yl)pyrrolidin-3-yl)-5-amino-2,6-dioxo-1,2,3,6-tetrahydropyrimidine-4-carboxamide]
13 | ≤ 10 µM | – | Nc1c(C(=O)N[C@H]2CCCc3c(OCc4ccccc4)cccc32)[nH]c(=O)[nH]c1=O [Example 92, (S)-5-amino-N-(5-(benzyloxy)-1,2,3,4-tetrahydronaphthalen-1-yl)-2,6-dioxo-1,2,3,6-tetrahydropyrimidine-4-carboxamide]
14 | ≤ 10 µM | – | O=C(N[C@H]1CC[C@@H](c2ccccc2)CC1)c1[nH]c(=O)[nH]c(=O)c1NCc1ccncc1 [Example 227, 2,6-dioxo-N-(cis-4-phenylcyclohexyl)-5-(pyridin-4-ylmethylamino)-1,2,3,6-tetrahydropyrimidine-4-carboxamide]
15 | ≤ 10 µM | 0.848 µM | Nc1c(C(=O)N[C@@H]2CCc3c(-c4ccccc4)cccc32)[nH]c(=O)[nH]c1=O [Example 137, (R)-5-amino-2,6-dioxo-N-(4-phenyl-2,3-dihydro-1H-inden-1-yl)-1,2,3,6-tetrahydropyrimidine-4-carboxamide]
16 | ≤ 10 µM | – | COc1ccc2c(c1)C(NC(=O)c1[nH]c(=O)[nH]c(=O)c1N)CCC2 (stereo not shown) [Example 39, 5-amino-N-(7-methoxy-1,2,3,4-tetrahydronaphthalen-1-yl)-2,6-dioxo-1,2,3,6-tetrahydropyrimidine-4-carboxamide]
17 | ≤ 10 µM | – | O=C(N[C@H]1CC[C@@H](c2ccccc2)CC1)c1[nH]c(=O)[nH]c(=O)c1NCc1ccc(C(F)(F)F)cc1 [Example 220, 2,6-dioxo-N-(cis-4-phenylcyclohexyl)-5-(4-(trifluoromethyl)benzylamino)-1,2,3,6-tetrahydropyrimidine-4-carboxamide]
18 | ≤ 10 µM | – | COc1cccc2c1CCCC2NC(=O)c1[nH]c(=O)[nH]c(=O)c1N (single isomer, unassigned; enantiomer a) [Example 198, 5-amino-N-(5-methoxy-1,2,3,4-tetrahydronaphthalen-1-yl)-2,6-dioxo 1,2,3,6-tetrahydropyrimidine-4-carboxamide (Enantiomer A)]
19 | ≤ 10 µM | – | Cc1c(-c2ccc([C@H]3CC[C@@H](NC(=O)c4[nH]c(=O)[nH]c(=O)c4N)C3)cc2)cnn1-c1ccccc1 [Example 165, 5-amino-N-((1R,3S)-3-(4-(5-methyl-1-phenyl-1H-pyrazol-4-yl)phenyl)cyclopentyl)-2,6-dioxo-1,2,3,6-tetrahydropyrimidine-4-carboxamide]
20 | ≤ 10 µM | – | O=C(NC1CCCc2c(CCc3ccccc3)cccc21)c1[nH]c(=O)[nH]c(=O)c1O (stereo not shown) [Example 284, 5-hydroxy-2,6-dioxo-N-(5-phenethyl-1,2,3,4-tetrahydronaphthalen-1-yl)-1,2,3,6-tetrahydropyrimidine-4-carboxamide]
21 | ≤ 10 µM | 0.447 µM | Nc1c(C(=O)N[C@H]2CC[C@@H](c3nc(-c4ccc(Cl)c(Cl)c4)no3)CC2)[nH]c(=O)[nH]c1=O [Example 48, 5-amino-N-(cis-4-(3-(3,4-dichlorophenyl)-1,2,4-oxadiazol-5-yl)cyclohexyl)-2,6-dioxo-1,2,3,6-tetrahydropyrimidine-4-carboxamide]
22 | ≤ 10 µM | – | Nc1c(C(=O)N[C@@H]2CCCc3c(OCC4CCCC4)cccc32)[nH]c(=O)[nH]c1=O [Example 113, (R)-5-amino-N-(5-(cyclopentylmethoxy)-1,2,3,4-tetrahydronaphthalen-1-yl)-2,6-dioxo-1,2,3,6-tetrahydropyrimidine-4-carboxamide]
23 | ≤ 10 µM | – | Nc1c(C(=O)NC2CCOc3ccccc32)[nH]c(=O)[nH]c1=O (single isomer, unassigned; enantiomer b) [Example 197, 5-amino-N-(chroman-4-yl)-2,6-dioxo-1,2,3,6-tetrahydropyrimidine-4-carboxamide (Enantiomer B)]
